Measurements as given in US8614182B2 (Jiangsu Hansoh Pharmaceuticals Co., Ltd., priority 2009, dated 2013).
Non-standard residues stand in square brackets, D forms with d. Residues, ends and D or L forms follow the SMILES beside them. *: point of attachment. εLys(Nα-Palmitoyl) = CCCCCCCCCCCCCCCC(=O)N[C@@H](CCCCN*)C(=O)O; Aib = CC(C)(N)C(=O)O

Legend:
[1] = cited from earlier work
[2] = test system: db/db mice with type 2 diabetes; experiment: Random blood glucose of db/db mice after single subcutaneous injection; assay type: in vivo; details: for random blood glucose: n = 8; for decrease rate of random blood glucose: versus control group
Procedure: db/db mice with type 2 diabetes were divided into six groups based on a random blood glucose and body weight (8 per group). […] The random blood glucose of the mice is determined at differete time after administration.
Preparation method: 1 bottle of the compound (2 mg/bottle) was dissolved with double-distilled water to prepare a colorless and transparent solution of which the concentration is 2 mg/mL. […] “ACCU-CHEK® Advantage” blood glucose meter form Roche was used to determine the blood glucose.
Route and volume of administration: Single subcutaneous injection dose, dose volume was 5 mL/kg. […]
The random blood glucoses of db/db mice were measured.
Each group has 8 mice, half male and half female. The animals of each group were administered with the test compounds or solvent control respectively through single subcutaneous injection.

[3] = target: T1, Glucagon-like peptide-1 receptor (GLP1R) (Homo sapiens, UniProt P43220); experiment: Agonist activity on GLP1R, cAMP response element luciferase reporter gene in HEK293 cells; assay type: cell-based; details: HEK293 cells stably transfected with GLP1R and pCRE-Luc, 5 hours incubation; read-out: Maximum reaction rate
T1 construct: expressed in transfected cells; host or cells: HEK293
Description: GLP1R is a receptor coupled with Gs protein, of which the binding with the agonists will result in an increase of intracellular cAMP concentration. In the present experiment, GLP1R and the luciferase reporter gene plasmid regulated by cAMP response elements are co-transfected into HEK293 cells. When the compound binds to the receptor and activates the receptors, the expression of the luciferase will increase. The activation status of the compound to GLP1R can be learned by testing the activity of the luciferase.
2. The compounds or positive drugs having a certain concentration gradient were added (3 wells per concentration) and incubated at 37° C. for 5 hours. The negative control was solvent DMSO.
3. 50 μl culture medium was taken from each well, and 50 μl of the luciferase substrate were added and vortexed for 10 minutes.
4. 80 μl reaction solution was taken and transferred to a white 96 well plate, then detected on the Invision microplate reader (enzyme-labelling measuring instrument).

T1 sequence (P43220 24-463, species assumed): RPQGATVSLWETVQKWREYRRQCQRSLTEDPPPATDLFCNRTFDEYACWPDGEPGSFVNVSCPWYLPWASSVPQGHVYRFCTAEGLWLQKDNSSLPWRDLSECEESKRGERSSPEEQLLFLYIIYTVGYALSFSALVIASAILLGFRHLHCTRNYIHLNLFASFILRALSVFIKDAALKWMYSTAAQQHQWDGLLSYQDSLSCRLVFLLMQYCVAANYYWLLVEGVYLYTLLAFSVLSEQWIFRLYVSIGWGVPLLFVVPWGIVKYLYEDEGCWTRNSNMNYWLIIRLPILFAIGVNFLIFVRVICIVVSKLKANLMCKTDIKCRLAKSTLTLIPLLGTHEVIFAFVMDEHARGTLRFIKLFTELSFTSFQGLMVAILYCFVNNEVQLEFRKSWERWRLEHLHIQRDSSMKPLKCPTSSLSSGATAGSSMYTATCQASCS

glucagon-like peptide-1 [GLP-1]
in vivo half-life [1]: about 2 minutes

CCCCCCCCCCCCCCCC(=O)N[C@@H](CCCCNC(=O)[C@H](CO)NC(=O)[C@@H]1CCCN1C(=O)[C@@H]1CCCN1C(=O)[C@@H]1CCCN1C(=O)[C@H](C)NC(=O)CNC(=O)[C@H](CO)NC(=O)[C@H](CO)NC(=O)[C@@H]1CCCN1C(=O)CNC(=O)CNC(=O)[C@H](CCCNC(=N)N)NC(=O)[C@@H](NC(=O)[C@H](CC(C)C)NC(=O)[C@H](Cc1c[nH]c2ccccc12)NC(=O)[C@H](C)NC(=O)[C@@H](NC(=O)[C@H](Cc1ccccc1)NC(=O)[C@H](CCC(=O)O)NC(=O)[C@H](CCCCN)NC(=O)[C@H](C)NC(=O)[C@H](C)NC(=O)[C@H](CCC(=O)O)NC(=O)[C@H](CCC(=O)O)NC(=O)[C@H](CCC(=O)O)NC(=O)[C@H](CC(C)C)NC(=O)[C@H](Cc1ccc(O)cc1)NC(=O)[C@H](CO)NC(=O)[C@H](CO)NC(=O)[C@@H](NC(=O)[C@H](CC(=O)O)NC(=O)[C@H](CO)NC(=O)[C@@H](NC(=O)[C@H](Cc1ccccc1)NC(=O)[C@@H](NC(=O)CNC(=O)[C@H](CCC(=O)O)NC(=O)C(C)(C)NC(=O)[C@@H](N)Cc1c[nH]cn1)[C@@H](C)O)[C@@H](C)O)C(C)C)[C@@H](C)CC)C(C)C)C(=O)O [HS-20004] (H-H[Aib]EGTFTSDVSSYLEEEAAKEFIAWLVRGGPSSGAPPPS-{εLys(Nα-Palmitoyl)}; N-terminus and C-terminus assumed)
random blood glucose ([2]; 3 μg/kg single s.c., 1 h after administration, X ± s): 20.11 ± 1.28 mmol/L
decrease rate of random blood glucose ([2]; 3 μg/kg single s.c., 1 h after administration): 15.00%
decrease rate of random blood glucose ([2]; 3 μg/kg single s.c., 1 h after administration, listed as 20004): 15.00%
random blood glucose ([2]; 3 μg/kg single s.c., 2 h after administration, X ± s): 18.81 ± 1.50 mmol/L
decrease rate of random blood glucose ([2]; 3 μg/kg single s.c., 2 h after administration): 16.85%
random blood glucose ([2]; 3 μg/kg single s.c., 4 h after administration, X ± s): 17.98 ± 1.38 mmol/L
decrease rate of random blood glucose ([2]; 3 μg/kg single s.c., 4 h after administration): 18.30%
random blood glucose ([2]; 3 μg/kg single s.c., 8 h after administration, X ± s): 23.30 ± 1.47 mmol/L
decrease rate of random blood glucose ([2]; 3 μg/kg single s.c., 8 h after administration): 8.22%
random blood glucose values compared with those of the control group ([2]; 3 μg/kg single s.c., after 2 h and 4 h, P<0.05): kept a lower level and had significant difference
random blood glucose values compared with those of the control group ([2]; 3 μg/kg single s.c., after 8 hours): no significant difference
random blood glucose values compared with those of the control group ([2]; 3 μg/kg single s.c., after one hour, P<0.05): decreased significantly
random blood glucose ([2]; 3 μg/kg single s.c., before administration, X ± s): 25.11 ± 1.63 mmol/L
decrease rate of random blood glucose ([2]; 10 μg/kg single s.c., 1 h after administration): 36.20%
random blood glucose ([2]; 10 μg/kg single s.c., 1 h after administration, ± s): 19.63 ± 1.81 mmol/L
decrease rate of random blood glucose ([2]; 10 μg/kg single s.c., 2 h after administration): 27.82%
random blood glucose ([2]; 10 μg/kg single s.c., 2 h after administration, ± s): 21.86 ± 1.66 mmol/L
decrease rate of random blood glucose ([2]; 10 μg/kg single s.c., 4 h after administration): 28.30%
random blood glucose ([2]; 10 μg/kg single s.c., 4 h after administration, ± s): 21.44 ± 1.68 mmol/L
decrease rate of random blood glucose ([2]; 10 μg/kg single s.c., 8 h after administration): 23.32%
random blood glucose ([2]; 10 μg/kg single s.c., 8 h after administration, ± s): 23.80 ± 1.46 mmol/L
decrease rate of random blood glucose ([2]; 10 μg/kg single s.c., 24 h after administration): 11.52%
random blood glucose ([2]; 10 μg/kg single s.c., 24 h after administration, ± s): 25.64 ± 1.85 mmol/L
random blood glucose values compared with those of the control group ([2]; 10 μg/kg single s.c., after 4 h and 8 h): still kept at a lower level
random blood glucose values compared with those of the control group ([2]; 10 μg/kg single s.c., after 24 hours): not significantly different
random blood glucose ([2]; 10 μg/kg single s.c., before administration, ± s): 23.18 ± 1.65 mmol/L
random blood glucose values compared with those of the control group ([2]; 10 μg/kg single s.c., time not specified): decreased immediately and significantly
effect on reducing random blood glucose compared within the series ([2]; single s.c.): much better effect
random blood glucose level (words, test conclusions) ([2]; single s.c., dose of 3 μg/kg (so in the source)): decreased obviously
Emax [3]: 90.8%
